Reference: the PolyMetriX glass transition set
± gives the standard deviation of the reports.

In order of rising glass transition temperature:
1. *OC(*)CCC (repeat unit)  -41.00 °C
2. *CC/C=C/C[Si](*)(C)c1ccccc1 (repeat unit)  -14.90 °C
3. *CC(*)(C)C(=O)OCc1ccc(OCCOCC)c(OCCOCC)c1 (repeat unit)  -2.00 °C
4. *C([2H])([2H])C(*)([2H])C([2H])=C([2H])[2H] (repeat unit)  1.00 °C
5. *CCCCCCCCOc1ccc(C(C)(C)c2ccc(O*)cc2)cc1 (repeat unit)  19.60 °C
6. *Oc1ccc(C(=O)OCCCCCOC(=O)c2ccc(*)cc2)cc1 (repeat unit)  26.00 °C
7. *CCCCCCCCCCCCOc1ccc(C(C)(C)c2ccc(OCOc3ccc(C(C)(C)c4ccc(O*)cc4)cc3)cc2)cc1 (repeat unit)  37.00 °C
8. *O[Si](*)(C)CCCOc1ccc(C(=O)Oc2ccc(C(=O)Oc3ccc(OC)cc3)cc2)cc1 (repeat unit)  38.00 °C
9. *CC(*)c1ccccc1COCCCCC (repeat unit)  47.00 °C
10. *CCOC(=O)NCCCCCCNC(=O)O* (repeat unit)  56.00 °C
11. */C=C/C1CC(*)C2C(=O)N(CCCCCCCC)C(=O)C12 (repeat unit)  56.50 °C
12. *CC(*)C(=O)Oc1ccc(Cl)cc1Cl (repeat unit)  60.00 °C
13. *CCCCCCCCOC(=O)c1ccc2cc(C(=O)O*)ccc2c1 (repeat unit)  60.00 °C
14. *CCCNC(=O)C(NC(=O)C(Cc1ccccc1)NC(=O)CCCCCCCCC(=O)NC(Cc1ccccc1)C(=O)NC(C(=O)NCCCOCCOCCO*)C(C)C)C(C)C (repeat unit)  66.00 °C
15. *OC(CCl)COC(=O)C1=C(C(=O)OCC(CCl)OC(=O)c2ccc(C(*)=O)cc2)C2C=CC1C2 (repeat unit)  72.00 °C
16. *CC(*)C1CCCC1 (repeat unit) [Poly(vinyl cyclopentane) ]  75 ± 0.6 °C
17. *CC(*)(C)C(=O)Oc1ccc(OCc2ccccc2)cc1 (repeat unit)  95.30 °C
18. *O[Si](C)(C)O[Si](C)(C)O[Si](C)(C)C#Cc1ccc(C#C[Si](*)(C)C)cc1 (repeat unit)  96.00 °C
19. *CCNC(=O)c1cccc(O*)c1 (repeat unit)  106.00 °C
20. *CC(CCCCCCCCCCCC)COC(=O)NC(=O)c1cccc(C(=O)NC(=O)O*)c1 (repeat unit)  112.00 °C
21. *CC(*)C(=O)N(C)C (repeat unit)  114.00 °C
22. *CC(*)c1ccccc1C(=O)OC (repeat unit)  130.00 °C
23. *CCCCCCNC(=O)c1ccc(C(=O)N*)cc1 (repeat unit)  132.50 °C
24. *Oc1cccc(OC(=O)c2ccc([Si](C)(C)c3ccc(C(*)=O)cc3)cc2)c1 (repeat unit)  134.00 °C
25. *CCN(*)C(=O)CC12CC3CC(CC(C3)C1)C2 (repeat unit)  139.00 °C
26. *CCCCNC(=O)c1cccc(C(=O)N*)c1 (repeat unit)  141.00 °C
27. *Oc1ccc(SC(=O)Oc2ccc(C(C)(C)c3ccc(OC(=O)Sc4ccc(*)cc4)cc3)cc2)cc1 (repeat unit)  145.00 °C
28. *OP(=O)(Oc1ccc(C)cc1)Oc1c(Br)cc(C(c2cc(Br)c(*)c(Br)c2)(C(F)(F)F)C(F)(F)F)cc1Br (repeat unit)  146.00 °C
29. *Nc1cc(NC(=O)NC2CCC(CC3CCC(NC(*)=O)CC3)CC2)cc(C(=O)Nc2ccc3c(c2)C(=O)c2ccccc2C3=O)c1 (repeat unit)  148.00 °C
30. *Oc1ccc(NC(=O)c2ccc(Oc3ccc(C(C)(C)c4cccc(C(C)(C)c5ccc(Oc6ccc(C(=O)Nc7ccc(Oc8ccc(C(c9ccc(*)cc9)(C(F)(F)F)C(F)(F)F)cc8)cc7)cc6)cc5)c4)cc3)cc2)cc1 (repeat unit)  154.00 °C
31. */C=C/c1ccc(-c2nnc(-c3ccc(/C=C/c4ccc5c(c4)c4cc(-c6ccc7c(c6)c6cc(*)ccc6n7CCCCCCCC)ccc4n5CCCCCCCC)cc3)n2-c2ccccc2)cc1 (repeat unit)  157.00 °C
32. *Oc1ccc2ccc(Oc3ccc(/C(=N/c4ccc(Oc5ccc(/N=C(\c6ccccc6)c6ccc(*)cc6)cc5)cc4)c4ccccc4)cc3)cc2c1 (repeat unit)  165.00 °C
33. *Oc1ccc(-c2ccc(OC(=O)OC3C(C)(C)C(OC(*)=O)C3(C)C)cc2)cc1 (repeat unit)  165.00 °C
34. */C=C/c1cc(CCCCCCCCCCCCCCCC)c(/C=C/c2nc(*)c(C#N)c(/C=C/c3ccc(N(c4ccccc4)c4ccccc4)cc3)c2C#N)cc1CCCCCCCCCCCCCCCC (repeat unit)  165.00 °C
35. *Oc1ccc(C2(c3ccc(OC(*)=O)cc3)CCCCC2)cc1 (repeat unit)  175.00 °C
36. *CC(*)c1ccccc1C(=O)O (repeat unit)  177.00 °C
37. *c1ccc(OCCOc2cccc(N3C(=O)c4ccc(Oc5ccc6c(c5)C(=O)N(*)C6=O)cc4C3=O)c2)cc1 (repeat unit)  178.50 °C
38. *CCCOc1ccc(-c2ccc(O*)c3ccccc23)c2ccccc12 (repeat unit)  182.00 °C
39. *Oc1ccc(Oc2ccc(C(=O)c3ccc(-c4ccc(C(=O)c5ccc(*)cc5)cc4)cc3)cc2)cc1-c1ccccc1 (repeat unit)  186.00 °C
40. *c1cc(C(c2ccc(OCCN(CC)c3ccc(/C=C/C4=CC(=C(C#N)C#N)CC(C)(C)C4)cc3)c(N3C(=O)c4ccc(Oc5ccc6c(c5)C(=O)N(*)C6=O)cc4C3=O)c2)(C(F)(F)F)C(F)(F)F)ccc1OCCN(CC)c1ccc(/C=C/C2=CC(=C(C#N)C#N)CC(C)(C)C2)cc1 (repeat unit)  202.00 °C
41. *Nc1cc([N+](=O)[O-])c(NC(=O)CCCCC(*)=O)cc1/C=C/c1ccc(N(C)C)cc1 (repeat unit)  206.00 °C
42. *Oc1cccc(NC(=O)c2cc(C(=O)Nc3ccc(*)cc3)cc(C(F)(F)C(F)(F)C(F)(F)C(F)(F)C(F)(F)C(F)(F)C(F)(F)C(F)(F)F)c2)c1 (repeat unit)  210.00 °C
43. *c1ccc(Oc2ccc(Oc3ccc(Oc4ccc(-c5cnc6ccc(-c7ccc8nc(*)cnc8c7)cc6n5)cc4)cc3)cc2)cc1 (repeat unit)  216.00 °C
44. *Oc1ccc(C(c2ccc(Oc3ccc(C(=O)Nc4ccc(NC(=O)c5ccc(*)cc5)cc4)cc3)cc2)(C(F)(F)F)C(F)(F)F)cc1 (repeat unit)  218.00 °C
45. *C(=O)NCCN(CCNC(=O)c1ccc2c(c1)C(=O)N(c1ccc(Oc3ccc(N4C(=O)c5ccc(*)cc5C4=O)cc3)cc1)C2=O)c1ccc(/C=C/c2ccc([N+](=O)[O-])cc2)cc1 (repeat unit)  224.00 °C
46. *c1ccc(-c2ccc(Oc3ccc(C4(C)CC(C)(C)c5ccc(Oc6ccc(-c7ccc(N8C(=O)c9ccc(Oc%10ccc(C(C)(C)c%11ccc(Oc%12ccc%13c(c%12)C(=O)N(*)C%13=O)cc%11)cc%10)cc9C8=O)cc7)cc6C(F)(F)F)cc54)cc3)c(C(F)(F)F)c2)cc1 (repeat unit)  241.00 °C
47. *c1ccc(Oc2ccc(N3C(=O)c4ccc(Oc5ccc(Oc6ccc7c(c6)C(=O)N(*)C7=O)cc5)cc4C3=O)cc2)cc1 (repeat unit)  241.00 ± 12 °C
48. *C(=O)Nc1ccc(C(c2ccc(NC(=O)c3ccc4c(c3)C(=O)N(c3ccc(-c5ccc(N6C(=O)c7ccc(*)cc7C6=O)c(OC)c5)cc3OC)C4=O)cc2)(C(F)(F)F)C(F)(F)F)cc1 (repeat unit)  250.00 °C
49. *C1CC2CC1C(*)C2CCCCCC (repeat unit)  252.00 °C
50. *CC(OC)C1(C)C(=O)OC(=O)C1(*)C (repeat unit)  260.00 °C
51. *Oc1ccc(C(=O)NNC(=O)c2ccc(*)cc2)cc1 (repeat unit)  263.00 °C
52. *c1ccc(Cc2ccc(N3C(=O)c4ccc(Sc5ccc6c(c5)C(=O)N(*)C6=O)cc4C3=O)cc2)cc1 (repeat unit)  265.00 °C
53. *c1ccc(Oc2ccc(C3(c4ccc(Oc5ccc(N6C(=O)c7ccc(Oc8c(C)cc(C(C)(C)c9cc(C)c(Oc%10ccc%11c(c%10)C(=O)N(*)C%11=O)c(C)c9)cc8C)cc7C6=O)cc5)cc4)CC4CCC3C4)cc2)cc1 (repeat unit)  265.00 °C
54. *Oc1ccc(NC(=O)c2ccc3cc(C(=O)Nc4ccc(Oc5ccc(C6(c7ccc(*)cc7)CC7CCC6C7)cc5)cc4)ccc3c2)cc1 (repeat unit)  276.00 °C
55. *c1ccc(Cc2ccc(NC(=O)c3cccc(-c4nc5cc(-c6ccc7[nH]c(-c8cccc(C(=O)Nc9ccc(Cc%10ccc(-n%11c(=O)c%12cc%13c(=O)n(*)c(=O)c%13cc%12c%11=O)cc%10)cc9)c8)nc7c6)ccc5[nH]4)c3)cc2)cc1 (repeat unit)  277.00 °C
56. *C(=O)c1ccc2c(c1)C(=O)N(c1cccc(C(O)c3cccc(N4C(=O)c5ccc(*)cc5C4=O)c3)c1)C2=O (repeat unit)  292.00 °C
57. *c1ccc(Oc2ccc(-c3cccc(-c4ccc(Oc5ccc(-c6c7c(c(*)c8ccccc68)C(=O)N(c6ccccc6)C7=O)cc5)c(C(F)(F)F)c4)n3)cc2C(F)(F)F)cc1 (repeat unit)  298.00 °C
58. *c1ccc(NC(=O)c2ccc(NC(=O)c3ccc([Si](C)(C)c4ccc(C(=O)Nc5ccc(C(=O)Nc6ccc(S(*)(=O)=O)cc6)cc5)cc4)cc3)cc2)cc1 (repeat unit)  315.00 °C
59. *c1ccc(N(c2ccc(C#N)cc2)c2ccc(N3C(=O)c4ccc(-c5ccc6c(c5)C(=O)N(*)C6=O)cc4C3=O)cc2)cc1 (repeat unit)  358.00 °C
60. *c1ccc2c(c1)C(=O)N(c1c(C)cc(-c3cc(C)c(N4C(=O)c5ccc(C(*)(C(F)(F)F)C(F)(F)F)cc5C4=O)c(C)c3)cc1C)C2=O (repeat unit)  370.50 °C
61. *c1ccc(-c2ccc(N3C(=O)c4ccc(-c5cccc6c5C(=O)N(*)C6=O)cc4C3=O)cc2C)c(C)c1 (repeat unit)  372.00 °C
62. *c1ccc(-c2ccc(N3C(=O)c4c(c(-c5ccccc5)c(-c5ccc(Oc6ccc(-c7c(-c8ccccc8)c8c(c(-c9ccccc9)c7-c7ccccc7)C(=O)N(*)C8=O)cc6)cc5)c(-c5ccccc5)c4-c4ccccc4)C3=O)cc2)cc1 (repeat unit)  399.00 °C
